{"source": "patent US20040106644A1", "about": "“Composition for treatment of night sight problems(halos, comas and glare) after refractive surgery, intra ocular lens implant after lensectomy or intraocular implant in phakic patients comprising aceclidine employed at low concentrations” (priority 2001, published 2004)", "key": {"[1]": {"system": "patients who underwent refractive surgery", "assay": "double-masked randomized clinical trial on night sight problems (halos, coma, glare) after refractive surgery", "format": "in vivo, human", "procedure": "A double-masked randomized clinical trial with 14 patients (27 eyes) has been organized by dividing the patients in three different groups: 8 patients were treated with placebo, 10 patients were treated with a first ophthalmic composition (I dilution), 9 patients were treated with a second ophthalmic composition (II dilution).\nThe patients belonging to this trial had to go through an ophthalmic examination: of the haze grading and of natural and corrected visual acuity, intra ocular pressure (IOP), pupillometry in mesopic conditions with split lamp and examination of corneal maps. The anamnestic data about the surgical operation were collected: the refractive surgery technique employed (PRK/LASIK), the date of the surgical operation, data about the corrected optical zone and the ametropy kind. The night sight problems had to be stable for at least three months after the surgical operation for the patient to be included in the trial.\nThe patients had to identify the image they perceived before and during the pharmacological treatment, with follow-up examinations fixed every 15-30 days. At the end of the clinical trial the patients had to provide information about the efficacy and duration (in terms of hours) of the treatment, onset time of the effect, changes of the visual capabilities and side effects, if any.\nThe ophthalmic compositions were prepared according to the following procedure:\nI dilution, 4 IU of aceclidine 2% were diluted in 5 mL of hyaluronic acid (0.200 g/100 mL)\nII dilution, 8 IU of aceclidine 2% were diluted in 5 mL of hyaluronic acid (0.200 g/100 mL)\nPlacebo consisted in 5 mL of hyaluronic acid (0.200 g/100 mL).\nThe three ophthalmic compositions (I dilution, II dilution and placebo) were administered to the 14 patients belonging to the clinical trial in a blind way."}, "healthy people": {"system": "healthy people", "assay": "pupillary diameter after instillation in healthy people", "format": "in vivo, human", "settings": "ophthalmic composition with aceclidine in very low concentrations, for four to six hours (summary statement)", "procedure": "The two ophthalmic compositions, I and II dilution, were administered firstly to a group of healthy people: one eye was treated with the I dilution composition (0.016%), the second eye with the II dilution composition (0.032%), measuring the pupillary diameter in the same light conditions at 30 minutes, 1-2-3-4-5-6 hours after the first instillation."}, "[2]": {"settings": "patients treated with refractive surgery, aceclidine in very low concentrations (summary statement)"}}}
{"smiles": "CC(=O)OC1CN2CCC1CC2", "note": "(stereo not drawn) [aceclidine, 3-acetoxyquinuclidine]", "values": [{"measurement": "side effects in the effective concentration range", "setting": "[1]; aceclidine 0.016% to 0.040% of total weight", "result": "no relevant side effects are detectable"}, {"measurement": "duration of action after instillation", "setting": "[1]; aceclidine 0.016% to 0.040%, instilled 10-20 minutes before need (summary statement)", "result": "4 to 6", "unit": "h"}, {"measurement": "duration of light, transitory conjunctival hyperemia", "setting": "[1]; [2]", "result": "5 to 10", "unit": "min"}, {"measurement": "headache or sight reduction", "setting": "[1]; [2]", "result": "no headache or sight reduction"}, {"measurement": "improvement of halos, coma and glare", "setting": "[1]; [2]", "result": "statistically significant improvement"}, {"measurement": "pupil diameter reduction", "setting": "healthy people", "result": "2-3 mm"}]}
